Data on two molecules can be found in publication PMC10980839 (Drug Design, Development and Therapy, 2024).

Each structure is given as a SMILES string. Entries after “also recorded” stand apart in the source; their conditions may differ.

One may read the Km as the substrate concentration at which the rate is half of its maximum.

The subject of series [1] is rat liver microsomes (RLMs). The following applies: tofacitinib 1-400 μM, 0.5 mg/mL RLMs, 1 mM NADPH, 37 °C, 30 min.
The conditions of series [2]: cited from earlier work.
The test system of series [3] is rat liver microsomes (RLMs). Briefly: Inhibitory effect of baohuoside I on tofacitinib metabolism in RLMs. Format: in vitro ADME. The following applies: Lineweaver-Burk plot.

In the case of `C[C@@H]1CCN(C(=O)CC#N)C[C@@H]1N(C)c1ncnc2[nH]ccc12` [Tofacitinib], in series [1], the Km came to 39.9 µM and the Vmax was 4.2824 ng/min/mg. Moreover, the plasma protein binding result in series [2] was “about 40%”.
As for `COc1ccc(-c2oc3c(CC=C(C)C)c(O)cc(O)c3c(=O)c2O[C@@H]2O[C@@H](C)[C@H](O)[C@@H](O)[C@H]2O)cc1` [Baohuoside I], the “inhibition mechanism on tofacitinib metabolism” value in series [3] was “a mixture of non-competitive and competitive inhibition; also recorded: a combination of non-competitive and competitive inhibition”.
